According to patent US9884049B2, “Microbicidal composition comprising an octoxynol and a quinolizidine alkaloid compound or a source thereof” (NOVICOL INTERNATIONAL HOLDING INC., priority 2014, dated 2018):

Key:
[1] = tested on: HIV-1ADA-M; test: Anti-HIV activity, MAGI assay in TZM-b1 cells; settings: for EC50: HIV-1ADA-M
[2] = tested on: TZM-b1 cells; test: Cytotoxicity, CyQuant assay
[3] = tested on: TZM-b1 cells; test: Cytotoxicity, XTT assay
[4] = tested on: HIV-1MN; test: Anti-HIV activity, MAGI assay in TZM-b1 cells; settings: for EC50: HIV-1MN
[5] = tested on: HIV; settings: nearly 1,000 sex workers in Africa, versus placebo; cited from earlier work
[6] = Wash (washed four hours after, then 72 h)

Row | Compound | TI (CC50/EC50) ([1]; CyQuant/HIV-1ADA-M, No wash) | TI (CC50/EC50) ([1]; CyQuant/HIV-1ADA-M, Wash) | EC50 ([1]; No wash) | EC50 ([1]; Wash) | TI (CC50/EC50) ([1]; XTT/HIV-1ADA-M, No wash) | TI (CC50/EC50) ([1]; XTT/HIV-1ADA-M, Wash) | CC50 ([2]; No wash (72 h)) | CC50 [2, 6] | CC50 ([3]; No wash) | CC50 ([3]; Wash) | TI (CC50/EC50) ([4]; CyQuant/HIV-1MN, No wash) | TI (CC50/EC50) ([4]; CyQuant/HIV-1MN, Wash) | EC50 ([4]; No wash) | EC50 ([4]; Wash) | TI (CC50/EC50) ([4]; XTT/HIV-1MN, No wash) | TI (CC50/EC50) ([4]; XTT/HIV-1MN, Wash) | HIV infection rate, higher than with placebo [5]
1 | O=C1CCC[C@@H]2[C@H]3CCCN4CCC[C@@H](CN12)[C@@H]34 [Matrine, matrine] | 3.01 | 0.89 | 0.2075 % (w/v) | 0.3948 % (w/v) | 1.50 | 2.80 | 0.6240 % (w/v) | 0.3530 % (w/v) | 0.3122 % (w/v) | 1.1040 % (w/v) | 8.91 | 7.06 | 0.0700 % (w/v) | 0.0500 % (w/v) | 4.46 | 22.08 | –
2 | IGEPAL® CA-630 | 9.73 | 1.38 | 0.00037 % (w/v) | 0.0035 % (w/v) | 0.43 | 2.05 | 0.0036 % (w/v) | 0.0048 % (w/v) | 0.0002 % (w/v) | 0.0072 % (w/v) | 2.95 | 1.55 | 0.0012 % (w/v) | 0.0031 % (w/v) | 0.13 | 2.31 | –
3 | nonoxynol-9 | – | – | – | – | – | – | – | – | – | – | – | – | – | – | – | – | about 50%
